What was measured:
[1] = Body weight and major organ histology (Example 8); assay type: in vivo, nude mice; settings: weekly i.v. for 3 weeks
Protocol: (§1) Nude mouse studies to determine the effect of doxorubicin-loaded NP3 on tumor shrinkage. One week after tumor implantation, the KB-31 tumor-bearing mice were randomly divided into four groups of five animals each. These groups were used for comparing the effects of saline, empty nanoparticles, free doxorubicin, and doxorubicin-loaded NP3, respectively. The latter group received intravenous administration of 120 mg/kg (˜2.4 mg per animal) NP3, which is equivalent to a doxorubicin dose of 4 mg/kg (˜0.08 mg per animal), weekly for 3 weeks. The free doxorubicin group received the same drug dose weekly for 3 weeks, while the group receiving empty NP3 was treated with 120 mg/kg on a weekly basis. The fourth group was treated with saline as control. The body weight and tumor size were accurately recorded twice per week. Tumor weight was calculated according to the formula: Tumor weight (mg)=(length in mm)× (width in mm)^2/2 (Meng et al., ACS Nano, vol. 4, pp. 2773-2783, 2010).
Appropriate size sections of the tumor, liver, kidney, spleen, lung, heart, and brain were fixed in 10% formalin and then embedded into paraffin. Tissue sections of 4 μm thickness were mounted on glass slides by the UCLA Division of Laboratory Animal Medicine (DLAM) diagnostic laboratory services. The sections were stained with hematoxylin-eosin (H&E) and examined by light microscopy. The slides were read by an experienced veterinary pathologist.

KB-V1 cells [2] = experiment: MTS cytotoxicity of free Dox, KB-V1; assay type: cell-based; settings: 72 hrs
Protocol: (§2) KB-31 and KB-V1 cells were plated at 1×10^4 cells per well in 96 well plate. The cells were treated with free Dox in solution in doses ranging from 0.05-3.2 μg/ml (KB-31) and 0.1-64 μg/ml (KB-V1) for 72 hrs. The cell viability was determined by the MTS assay. The treated cells were incubated with MTS working solution for 2-3 hrs before measurement. The mean absorbance of non-exposed cells served as the reference value for calculating 100% cellular viability. To view Pgp expression, the cells were washed in PBS and the pellets lysed in a buffer containing Triton X-100 and protease inhibitors after centrifugation. The protein content of the supernatants was determined by the Bradford method. 100 μg total protein was electrophoresed by 10% SOS-PAGE and transferred to a PVDF membrane. After blocking, the membranes were incubated with 1:1000 dilution of primary monoclonal antibody to MDR1 (anti-Pgp C219, Abeam). The membranes were overlayed with goat anti-mouse secondary antibody (1:1000 dilution) before the addition of the HRP-conjugated streptavidin-biotin complex. The proteins were detected using ECL reagent according to the manufacturer's instructions.

[3] = cited from earlier work
KB-31 tumor xenograft [4] = experiment: TUNEL staining of the tumor tissue; assay type: in vivo, nude mice; settings: 4 mg/kg doxorubicin i.v. weekly for 3 weeks
Protocol: A section of the tumor from each animal was used for TUNEL staining. The slides containing the tumor section were washed, fixed, and permeabilized before performance of TUNEL staining according to the manufacturer's instructions (Invitrogen, Carlsbad, Calif.). Nuclei were stained by Hoechst 33342 dye. The number of TUNEL positive cells (green staining) was assessed under a fluorescent microscope (200×). The same sections were also used for recording of the red fluorescent images of the doxorubicin that was present in the particles or the tissues. At least three fields were counted by the same investigator to calculate the percentage of TUNEL positive cells.

[5] = Blood biochemistry to assess possible toxicity (Example 8); assay type: in vivo; settings: serum, tumor-bearing nude mice, weekly i.v. for 3 weeks, day 21
Protocol: as §1
Following the animal experiments described above, the mice were sacrificed on 21st day and serum collected by centrifuging the whole blood at 5,000 rpm for 15 min. The biochemical parameters, including cholesterol (CHOL), triglycerides (TRG), alanine aminotransferase (ALT), aspartate aminotransferase (AST), total bilirubin (TBILI), glucose (GLU), inorganic phosphorus (PHOS), total protein (TPR), calcium (CAL), blood urea nitrogen (BUN), creatinine (CRE), and albumin (ALB) were assayed by UCLA Division of Laboratory Animal Medicine (DLAM) diagnostic laboratory services.

KB-31 tumor xenograft [6] = experiment: Tumor growth inhibition by doxorubicin-loaded NP3; assay type: in vivo, nude mice; settings: 4 mg/kg doxorubicin i.v. weekly for 3 weeks, tumor weight at sacrifice
Protocol: Athymic BALB/c nu/nu female mice (6 weeks) were purchased from the Charles River Laboratory, and maintained under pathogen-free conditions. All animal experiments were performed using protocols approved by the UCLA Animal Research Committee. The tumor cell suspension (0.1 ml, 5×10^6 cells/mL) was injected subcutaneously into the mice. To perform imaging, the tumor-bearing animals were used 2.5 weeks after tumor implantation. In the tumor growth inhibition experiments, the nude mice were randomly divided into 4 groups and received the listed range of treatments, which commenced 1 week after tumor implantation.
as §1, with “The free doxorubicin group received the same drug dose weekly for 3 weeks, while the group receiving empty NP3 was treated with 120 mg/kg on a weekly basis. The fourth group was treated with saline as control.” left out

KB-31 cells = experiment: MTS cytotoxicity of free Dox, KB-31; assay type: cell-based; settings: KB-31, free Dox, 72 hrs
Protocol: as §2

KB-V1 cells [7] = experiment: Cytotoxicity of Dox formulations in KB-V1 cells (MTS, 72 hrs); assay type: cell-based; settings: KB-V1, Tariquidar 50 nM
Protocol: To measure cytotoxicity of the different Dox formulations, KB-V1 cells were treated with free Dox, Dox-MSNP, PEI-Dox-MSNP and siRNA-PEI-Dox-MSNP, respectively. For the latter two particle types, incubation time was for 16 hrs before replenishment of the old medium with fresh complete DMEM and performance of a MTS assay at 72 hrs. Based on the absorption readout at 490 nm, the IC50 of free and Dox-loaded MSNP were calculated. The induction of apoptosis at 72 hours was assessed through the use of Annexin V-SYTOX Blue. Briefly, 5×10^5 cells were harvested and stained by FITC-Annexin V-SYTOX Blue working solution (Annexin V, Trevigen; SYTOX Blue, Invitrogen) at room temperature for 15 min. The cells were washed in binding buffer before performance of flow cytometry (Becton Dickinson, Mountain View, Calif.). Date analysis was performed by BD CellQuest. To confirm the flow data in which there may be a minor overlap of Dox with FITC-Annexin V, a TUNEL detection kit was used according to the manufacturer's instructions to confirm the induction of apoptosis. Briefly, 72 hrs following treatment with free Dox or Dox loaded particles, cells were washed, fixed, and permeabilized before TUNEL staining. The number of TUNEL-positive cells was assessed under a fluorescent microscope (200×). At least 3 fields were counted by the same investigator to calculate the percentage of TUNEL positive cells.

## COc1cccc2c1C(=O)c1c(O)c3c(c(O)c1C2=O)C[C@@](O)(C(=O)CO)C[C@@H]3O[C@H]1C[C@H](N)[C@H](O)[C@H](C)O1.Cl [Free Dox, doxorubicin hydrochloride]
[1]; H&E
  kidney histology: glomerular swelling
  liver histology: prominent hepatic steatosis
[1]; compared to saline
  body weight: cyclical decrease in body weight
KB-V1 cells [2]
  IC50 (MTS): 53.0 µg/mL
[3]
  pKa: 8.2
KB-31 tumor xenograft [4]
  TUNEL-positive cells in tumor tissue: ~13%
[5]
  ALB: 2.4 ± 0.2 g/dL
  ALT: 36.8 ± 8.0 u/L
  AST: 347.8 ± 73.9 U/L
  BUN: 17.3 ± 2.6 mg/dL
  CAL: 9.0 ± 0.5 mg/dL
  CHOL: 97.8 ± 12.8 mg/dL
  CRE: 0.3 ± 0.1 mg/dL
  GLU: 102.5 ± 29.2 mg/dL
  PHOS: 9.5 ± 0.8 mg/dL
  TBIL: 0.4 ± 0.0 mg/dL
  TPR: 5.0 ± 0.4 g/dL
  TRG: 91.5 ± 21.2 mg/dL
KB-31 tumor xenograft [6]
  tumor inhibition: 70%
KB-31 cells
  IC50 (MTS): 0.21 µg/mL

## CCOc1ccc(-c2nc3ccc(-c4nc5ccc(N6CCN(C)CC6)cc5[nH]4)cc3[nH]2)cc1 [Hoechst 33342]
[3]
  pKa: 11.9

## COc1cc2c(cc1OC)CN(CCc1ccc(NC(=O)c3cc(OC)c(OC)cc3NC(=O)c3cnc4ccccc4c3)cc1)CC2 [Tariquidar]
KB-V1 cells [7]
  effect of co-administration with free Dox on drug sensitivity: partially restores drug sensitivity
